Test results taken from PMC12867150, “A fungi-derived cyclic peptide enhances Th9-mediated antitumor immunity by targeting ZAP70 and SREBP1” (The Journal of Clinical Investigation, 2025).
Where “and” joins values, the source holds several entries; their conditions need not be identical. Equal entries are not always repeated. Structures can show the parent of a compound that is named as a salt.

What was measured:
[1] = test system: mitochondria of human Th9 cells; experiment: Mitochondrial membrane potential / mass of human Th9 cells (Figure 8D, S9B); format: cell-based; conditions: for mitochondrial mass using Mito Tracker in human Th9 cells: flow cytometry, Supplemental Figure 9B
Experimental: (§1) For Th9 polarization, cultures were supplemented with IL-4 (10 ng/mL, PeproTech, catalog AF-200-04), TGF-β (1 ng/mL), and neutralizing anti–IFN-γ monoclonal antibody (10 μg/mL, clone B27, BioXcell, catalog BE0245). After 3 days of initial culture, cells were either collected for downstream assays or continued in extended culture with refreshed cytokines to maintain lineage commitment without antibodies. Th9 cells were collected at days 4, 5, and 6 for subsequent in vitro assays. For adoptive transfer studies, day 4–cultured Th9 cells were washed and prepared for intravenous injection.
Mitochondrial mass and membrane potential were assessed using MitoTracker™ Deep Red FM (Thermo Fisher Scientific, catalog M22426) and TMRM (tetramethylrhodamine methyl ester; Macklin, catalog T868125), respectively, following the manufacturers’ protocols. Cells were incubated with the respective dyes, washed, and subjected to flow cytometry or fluorescence microscopy analysis. For ultrastructural assessment, mitochondrial number and diameter were quantified from high-resolution transmission electron microscopy (TEM) images using ImageJ software.

[2] = test system: Th9 cells; experiment: IL-9+ Th9 cells with fatostatin (Figure 7A); format: cell-based, mouse; set-up: IL-9 expression in Th9 cells: unit not given here; conditions: for IL-9 expression in Th9 cells: Figure 7A, individual replicates, one per column (n = 4); for IL-9 production: fatostatin 5 μM, alone or with EpA 10 μM, result in words
From the text: (B) Quantitative PCR analysis of Il9 mRNA expression in cells treated as in A (n = 3). (C–F) Flow cytometric analysis of TNF-α production (C), CD69 expression (D), PD-1 expression (E), and mitochondrial membrane potential measured by MitoTracker staining (F) in Th9 cells treated with the indicated conditions (n = 4 for C–E; n = 3 for F). […] Cluster 2 includes genes related to calcium signaling, glycolysis, oxidative phosphorylation, and ERK signaling; cluster 6 includes genes associated with lipid biosynthesis. […] Statistical significance was determined using 1-way ANOVA followed by Tukey’s post hoc test (A–F and H–J). Data are presented as mean ± SEM (A–F and H–J). **P < 0.01, ***P < 0.001, ****P < 0.0001. […] It is left out because it is the vehicle control, not a substance.
T cell polarization was initiated under plate-bound anti-CD3 (2 μg/mL, clone 17A2, BioXCell, catalog BE0002) and soluble anti-CD28 (1 μg/mL, clone 37.51, BioXCell, catalog BE0015-1) stimulation, with the addition of cytokines and neutralizing antibodies specific to each subset. For Th9 cells, these included IL-4 (10 ng/mL, Peprotech, catalog 400-04), TGF-β (1 ng/mL, EPOTO Biotech, catalog HF-2021), anti–IL-12 (5 μg/mL, clone C17.8, BioXCell, catalog BE0051), and anti–IFN-γ (10 μg/mL, clone XMG1.2, BioXCell, catalog BE0055); for Th1 cells, these included IL-12 (10 ng/mL, GenScript, catalog Z03211-50) and anti–IL-4 (5 μg/mL, clone 11B11, BioXCell, catalog BE0045); for Th2 cells, these included IL-4 (50 ng/mL), anti–IFN-γ (20 μg /mL), anti–IL-12 (5 μg/mL), Th17 cells: IL-6 (20 ng/mL, EPOTO Biotech, catalog MF-1006), TGF-β (1 ng/mL), IL-1β (10 ng/mL, Peprotech, catalog AF-211-11B), anti–IFN-γ (10 μg/mL), anti–IL-12 (5 μg/mL), and anti–IL-4 (5 μg/mL); and for Tregs, these included TGF-β (3 ng/mL). After 3 days of initial culture, cells were either collected for downstream assays or continued in extended culture with refreshed cytokines to maintain lineage commitment.
[…] Dead cells were detected using Fixable Viability Dye eFluor 780 (eBioscience, catalog 65-0865).

[3] = test system: human Th9 cells; experiment: Human Th9 differentiation, IL-9 by flow cytometry (Figure 8A-B, S9A); format: cell-based; conditions: for intracellular IL-9 expression in human Th9 cells: flow cytometry, Supplemental Figure 9A; for IL-9 production in human CD4⁺ T cells (flow cytometric analysis): Figure 8B, Th9-polarizing conditions, individual replicates, one per column (n = 4)
Experimental: Naive human CD4^+ T cells were isolated from PBMCs obtained from healthy donors using the EasySep Human Naive CD4^+ T Cell Isolation Kit II ([…] Technologies, catalog 17555), according to the manufacturer’s protocol. Isolated T cells were cultured in OptiVitro T Cell Medium SF (Excell Bio, catalog TE000-N022) supplemented with recombinant human IL-2 (100 U/mL, Novoprotein, catalog C013). T cell activation was achieved using plate-bound anti-CD3 (5 μg/mL) and soluble anti-CD28 antibodies (2 μg/mL).
as §1
Details regarding staining panels (human and mouse), reagents (including clones and catalog numbers), acquisition settings, compensation/controls, and analysis procedures are provided in Supplemental Methods.
MH9A4, Biolegend, Cat. No. 507605, PE/Cy7, clone MH9A4, Biolegend, Cat. No. […]
clone Mab11, Biolegend, Cat. No. 502908), Perforin (APC, clone dG9, Biolegend, Cat.
Flow cytometric acquisition was performed using a BD Fortessa or Cytek Aurora cytometer. Data were analyzed with FlowJo software (v10.8.1 or newer). Fluorescence compensation, isotype-matched controls, and fluorescence-minus-one (FMO) controls were applied as appropriate for multicolor panel validation. […]

[4] = with fatostatin, result in words

In the case of CCCc1cc(-c2nc(-c3ccc(C)cc3)cs2)ccn1 [fatostatin, fatostatin hydrobromide, reference compound], the “mitochondrial membrane potential, human EpA-Th9” value [1, 4] is reported as “further augmented”, the “IL-9 expression in Th9 cells” value ([2]; single agent) is reported as 25.4 and 26.8 and 28.6 and 27.5 and the IL-9 production [2] is reported as “significantly upregulated IL-9 production”. The “intracellular IL-9 expression in human Th9 cells” value (shortened to “intracellular IL-9 expression”) ([3]; replicate 1) was 23.3%, the “intracellular IL-9 expression” value ([3]; replicate 2) was 24.1% and the “intracellular IL-9 expression” value ([3]; replicate 3) was 23.7%. The “intracellular IL-9 expression” value ([3]; replicate 4) was 23.5% and the “IL-9 production, human EpA-Th9” value [3, 4] was “further augmented”.
With anteiso-C15 Leu7 surfactin [EpA] the “mitochondrial mass using Mito Tracker in human Th9 cells” value (“mitochondrial mass using Mito Tracker” for short) ([1]; replicate 1) was 2.888 ×10^5, the “mitochondrial mass using Mito Tracker” value ([1]; replicate 2) was 2.867 ×10^5 and the “mitochondrial mass using Mito Tracker” value ([1]; replicate 3) was 2.9 ×10^5. For the same molecule, the “mitochondrial membrane potential, human Th9” value ([1]; result in words) was “increased mitochondrial membrane potential”, the “IL-9 expression in Th9 cells” value [2] was 74.4 and 75.9 and 77.3 and 78.9 and the “IL-9 expression in Th9 cells” value ([2]; single agent) was 46.6 and 46.1 and 47.5 and 45.4. For the same molecule, the IL-9 production [2] was “further enhanced when combined with EpA”, the “IL-9 production in human CD4⁺ T cells (flow cytometric analysis)” value ([3]; Day5) was 43.3 and 42.8 and 42.9 and 42 and the “IL-9 production in human CD4⁺ T cells (flow cytometric analysis)” value ([3]; Day6) was 34.5 and 32.5 and 32.7 and 34.1. For the same molecule, the “IL-9 expression, human Th9” value ([3]; day 5 to day 6, result in words) was “significantly elevated IL-9 expression”, the “intracellular IL-9 expression” value ([3]; replicate 1) was 22% and the “intracellular IL-9 expression” value ([3]; replicate 2) was 24.8%. For the same molecule, the “intracellular IL-9 expression” value ([3]; replicate 3) was 22.1% and the “intracellular IL-9 expression” value ([3]; replicate 4) was 24.3%.
